Measured values: ChEMBL document CHEMBL1127588, “A structure-activity relationship study of benzylic modifications of 4-[1-(1-naphthyl)ethyl]-1H-imidazoles on alpha 1- and alpha 2-adrenergic receptors” (J Med Chem, 1994)

Experiments:
[1] = target: T1, Adrenergic receptor alpha-1 (Rattus norvegicus, UniProt P15823+P23944+P43140); test: Tested for its binding affinity against alpha-1 receptor in rat brain membrane; assay type: cell membranes
T1 sequence (P15823 whole entry): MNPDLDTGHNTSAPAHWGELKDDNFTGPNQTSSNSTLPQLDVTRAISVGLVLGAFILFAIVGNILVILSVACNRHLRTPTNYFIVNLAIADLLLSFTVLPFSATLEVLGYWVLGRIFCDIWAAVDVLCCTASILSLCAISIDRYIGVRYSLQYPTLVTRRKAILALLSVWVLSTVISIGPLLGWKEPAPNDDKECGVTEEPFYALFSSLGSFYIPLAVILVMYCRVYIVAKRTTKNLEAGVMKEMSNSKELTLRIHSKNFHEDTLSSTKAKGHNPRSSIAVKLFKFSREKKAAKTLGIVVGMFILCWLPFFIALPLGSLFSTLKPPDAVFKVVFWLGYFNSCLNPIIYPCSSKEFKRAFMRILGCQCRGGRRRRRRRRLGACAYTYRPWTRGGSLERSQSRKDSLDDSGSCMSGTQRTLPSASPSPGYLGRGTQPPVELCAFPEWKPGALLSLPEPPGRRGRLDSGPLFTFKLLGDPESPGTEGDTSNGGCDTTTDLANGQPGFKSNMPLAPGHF
T1 sequence (P23944 whole entry): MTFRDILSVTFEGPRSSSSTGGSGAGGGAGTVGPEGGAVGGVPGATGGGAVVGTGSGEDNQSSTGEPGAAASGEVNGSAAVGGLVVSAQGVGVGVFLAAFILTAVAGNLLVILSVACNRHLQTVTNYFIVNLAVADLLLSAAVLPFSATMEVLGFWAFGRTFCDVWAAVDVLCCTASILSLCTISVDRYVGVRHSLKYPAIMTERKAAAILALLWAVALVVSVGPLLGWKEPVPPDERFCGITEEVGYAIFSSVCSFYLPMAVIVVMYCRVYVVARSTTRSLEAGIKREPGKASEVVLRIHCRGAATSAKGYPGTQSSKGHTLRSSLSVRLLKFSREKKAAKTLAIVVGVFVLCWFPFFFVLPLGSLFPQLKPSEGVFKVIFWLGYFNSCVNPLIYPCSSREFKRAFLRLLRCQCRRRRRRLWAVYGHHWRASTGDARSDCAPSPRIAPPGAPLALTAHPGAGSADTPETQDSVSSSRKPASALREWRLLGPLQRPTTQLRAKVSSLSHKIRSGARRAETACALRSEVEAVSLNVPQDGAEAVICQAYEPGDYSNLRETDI
T1 sequence (P43140 whole entry): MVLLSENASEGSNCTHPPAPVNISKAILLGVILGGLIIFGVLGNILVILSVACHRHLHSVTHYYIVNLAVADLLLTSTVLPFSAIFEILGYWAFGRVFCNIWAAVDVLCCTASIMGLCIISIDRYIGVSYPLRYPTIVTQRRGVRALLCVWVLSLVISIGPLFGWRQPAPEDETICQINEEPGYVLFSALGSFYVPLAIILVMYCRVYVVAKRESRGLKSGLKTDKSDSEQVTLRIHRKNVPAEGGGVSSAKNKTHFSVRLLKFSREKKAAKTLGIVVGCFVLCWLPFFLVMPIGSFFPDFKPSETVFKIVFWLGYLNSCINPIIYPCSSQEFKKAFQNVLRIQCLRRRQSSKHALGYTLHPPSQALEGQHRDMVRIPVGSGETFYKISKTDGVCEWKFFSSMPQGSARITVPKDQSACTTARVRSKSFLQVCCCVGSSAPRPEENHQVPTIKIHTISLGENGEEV

[2] = Ratio between IC50 values of alpha 1 and alpha 2 receptors
[3] = target: Adrenergic receptor alpha (Rattus norvegicus) (UniProt P15823+P23944+P43140+P22086+P19328+P22909); test: Ratio between EC50 values of alpha 1 and alpha 2 receptors; assay type: protein assay
[4] = target: T2, Adrenergic receptor alpha-2 (Homo sapiens, UniProt P08913+P18825+P18089); test: Tested for its inhibitory activity against alpha-2 adrenoceptor in guinea pig ileum; assay type: tissue-based, Cavia porcellus; conditions: target entry is the homologue from another species
T2 sequence (P08913 whole entry): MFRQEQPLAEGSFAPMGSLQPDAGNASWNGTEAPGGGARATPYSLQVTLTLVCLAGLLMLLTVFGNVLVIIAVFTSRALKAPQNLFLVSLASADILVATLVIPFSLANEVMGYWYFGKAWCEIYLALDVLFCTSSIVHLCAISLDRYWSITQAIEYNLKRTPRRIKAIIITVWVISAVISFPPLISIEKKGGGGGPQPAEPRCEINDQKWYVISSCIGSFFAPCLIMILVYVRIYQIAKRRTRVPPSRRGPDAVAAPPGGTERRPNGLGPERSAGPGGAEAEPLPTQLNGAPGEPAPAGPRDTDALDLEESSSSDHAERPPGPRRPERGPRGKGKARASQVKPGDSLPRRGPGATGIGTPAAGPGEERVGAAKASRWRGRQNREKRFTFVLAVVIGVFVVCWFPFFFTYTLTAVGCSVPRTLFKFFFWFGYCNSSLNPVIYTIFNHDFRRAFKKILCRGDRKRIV
T2 sequence (P18825 whole entry): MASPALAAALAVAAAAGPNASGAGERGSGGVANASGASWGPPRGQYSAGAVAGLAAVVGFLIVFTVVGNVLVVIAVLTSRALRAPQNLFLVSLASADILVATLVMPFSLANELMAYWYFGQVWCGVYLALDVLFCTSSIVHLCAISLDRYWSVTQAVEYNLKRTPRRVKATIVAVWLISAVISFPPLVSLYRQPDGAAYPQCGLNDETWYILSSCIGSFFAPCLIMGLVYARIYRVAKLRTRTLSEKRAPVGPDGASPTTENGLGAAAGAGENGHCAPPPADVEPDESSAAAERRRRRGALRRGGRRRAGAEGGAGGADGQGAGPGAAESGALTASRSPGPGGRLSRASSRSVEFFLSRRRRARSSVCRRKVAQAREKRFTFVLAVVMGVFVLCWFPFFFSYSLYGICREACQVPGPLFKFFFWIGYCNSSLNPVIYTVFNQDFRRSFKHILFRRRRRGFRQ
T2 sequence (P18089 whole entry): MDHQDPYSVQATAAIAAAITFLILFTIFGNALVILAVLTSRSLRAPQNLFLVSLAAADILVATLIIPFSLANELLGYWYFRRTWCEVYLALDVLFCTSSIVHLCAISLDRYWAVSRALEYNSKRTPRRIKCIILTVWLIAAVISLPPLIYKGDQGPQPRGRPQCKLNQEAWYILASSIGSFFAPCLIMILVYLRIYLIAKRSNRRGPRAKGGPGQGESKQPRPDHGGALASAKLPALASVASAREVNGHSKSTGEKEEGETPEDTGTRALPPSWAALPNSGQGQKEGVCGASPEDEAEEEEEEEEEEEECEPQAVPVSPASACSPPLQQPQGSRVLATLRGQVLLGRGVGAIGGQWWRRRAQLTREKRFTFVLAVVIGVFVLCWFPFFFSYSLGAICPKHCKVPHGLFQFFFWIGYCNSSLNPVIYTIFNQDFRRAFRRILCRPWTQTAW

Structure (SMILES)	Ki [1] [nM]	Ratio [2]	Ratio [3]	EC50 [4] [nM]
Cc1cccc(C(C)c2c[nH]cn2)c1C (configuration not stated) [MEDETOMIDINE]	1102			
Cl.c1ccc2c(Cc3c[nH]cn3)cccc2c1	188	2.7	117	18
Cl.OC(c1c[nH]cn1)c1cccc2ccccc12 (configuration not stated)	9255	1.05	33.8	375
CC(c1c[nH]cn1)c1cccc2ccccc12 (stereo in doubt; S-(+)-2)	461			11
COC(c1c[nH]cn1)c1cccc2ccccc12.Cl (configuration not stated)	> 50000	> 5.8		32992
CC(c1c[nH]cn1)c1cccc2ccccc12 (stereo in doubt; 2)	310			9
CC(c1c[nH]cn1)c1cccc2ccccc12 (stereo in doubt; S-(-)-2)	536			
